Where two headings read alike, the source gives them in different places.
Columns and labels:
[1] = cited from earlier work
CCR2 = CCR2 expression in monocytic MDSCs (cDNA array, quantitative PCR, FACS); type: in vivo, mouse; conditions: three days of treatment, 30 or 75 mg/kg/d orally, LLC mice
Text: FIGS. 2A-2G. […] FACS and graphs showing percentages and absolute numbers of the donor-derived-cell subset (CD45.1^+ cells) in both lungs of the recipient LLC mice (n=3 mice per group). FIG. 2C: Cell-sorting schema for collecting monocytic MDSCs on day 3 after resection (left). Volcano plots showing differences in RNA expression of monocytic MDSCs from the bone marrow (BM) or lung between low-dose-AET-and vehicle-treated LLC mice (right) (n=3 biological replicates). FIG. 2D: Agilent cDNA array expression of chemokines and chemokine receptors in monocytic MDSCs from bone marrow or lungs of low-dose-AET-and vehicle-treated LLC mice (n=3 biological replicates). False-discovery-rate (FDR)-adjusted P values of CCR2 are 0.005 (bone marrow) and 0.016 (lung). Cxcr7 is also known as Ackr3. […] In the FACS plot, red represents low-dose AET and blue represents mock treatment. […]
FIGS. 10A-10H. […] CD45.1^+ cells (transferred polymorphonuclear MDSCs) were identified in the lungs of the recipient mice and analyzed by flow cytometry (right, n=3 mice per group). […] CD45.1^+ cells (transferred polymorphonuclear MDSCs) were identified in the lungs of the recipient CD45.2 mice and analyzed by flow cytometry at 18 h after transfer (right, n=3 mice per group). […] Gene-set enrichment P values, NES values and FDR values reported are calculated with 1,000 permutations in the GSEA software. […]

| SMILES | solubility ([1]; in acetone, ethanol and methyl ketone) | solubility ([1]; in dimethylsulfoxide (DMSO)) | solubility ([1]; in ethanol/water (50/50), propylene glycol and polyethylene glycol) | solubility ([1]; in water, water-saturated octanol, 5% dextrose in water, N-methyl-2-pyrrolidone, normal saline and 5% Tween 80 in water) | expression of CCR2 in monocytic MDSCs from bone marrow in vivo (CCR2) |
| --- | --- | --- | --- | --- | --- |
| Nc1ncn([C@@H]2O[C@H](CO)[C@@H](O)[C@H]2O)c(=O)n1 [5-azacitidine, 4-amino-1-β-D-ribofuranozyl-s-triazin-2(1H)-one] | insoluble | soluble | slightly soluble | sparingly soluble | – |
| Cc1ccc2nc(NCCN)c3ncc(C)n3c2c1 [BMS-345541] | – | – | – | – | decreased expression |

Reference: US20230310479A1, “LOW DOSE ADJUVANT EPIGENETIC CANCER THERAPY” (THE JOHNS HOPKINS UNIVERSITY, priority 2019, published 2023)
